From PMC12595484, “Optimizing multifunctional fluorescent ligands for intracellular labeling” (Proceedings of the National Academy of Sciences of the …, 2025) come the findings set out here.

A short description of data set [1]: Determination of logD7.4 (miniaturized shake flask, octanol–PBS). Format: physicochemical. The method, then: (§1) Detailed descriptions of the materials and methods are provided in the supporting information. Multifunctional rhodamine–HaloTag ligands (13HTL–16HTL and 18HTL–20HTL) were synthesized using palladium-catalyzed cross-coupling reactions to install 3-carboxyazetidine moieties onto rhodamine scaffolds, followed by amide bond formation with biotin–PEG2–NH2, (S)-JQ1–PEG2–NH2, or (R)-JQ1–PEG2–NH2. Spectroscopic properties (λabs, λem, ε, and Φf) were determined in 10 mM HEPES, pH 7.3. The lactone–zwitterion equilibrium constants (KL–Z) were measured in 1:1 (v/v) dioxane–water mixtures. Octanol–water distribution coefficients (logD7.4) were determined by miniaturized shake-flask partitioning experiments using PBS (pH 7.4) and 1-octanol. Cell culture experiments employed HEK293T, U2OS, and Neuro2a cells transfected with HaloTag fusion constructs and labeled with ligands (100 nM to 1 μM, 0.5 to 2 h at 37 °C), followed by fluorescence microscopy using confocal or lattice light-sheet microscopy. Affinity purification studies utilized streptavidin magnetic beads to capture biotin-labeled HaloTag conjugates, with analysis by SDS-PAGE and in-gel fluorescence detection. […]
Reported values are averages of at least two measurements.
Determination of logD7.4. The log of distribution coefficients at pH 7.4 was determined in octanol–phosphate-buffered saline (PBS) using a miniaturized shake flask setup described previously.6, 7 Briefly, 150 mL each of octanol and PBS pH 7.4 were stirred vigorously for 12–16 h. The layers were allowed to stand for at least 24 h for phase separation. The separated layers were collected and served as PBS saturated with octanol (PBS*) and octanol saturated with PBS (octanol*). Stock solutions (1 mM or 5 mM) of ligands were prepared in DMSO and diluted in PBS* to obtain 1 μM or 10 μM (3–5 mL) of the standard (std). This standard was used to prepare appropriate dilutions using octanol*, in triplicate, in 2-mL glass vials. The leftover standard was used to determine the standard concentration (Cstd). The vials were vortexed for 1 min and shaken horizontally at 700 rpm for 2 h. The vials were then shaken upright at 150 rpm for 2 h to allow the phases to separate. The octanol* layer was pipetted out, and the PBS* layer was used for further analyses. The concentrations of ligands in the standard and PBS* (CPBS*) were determined via fluorescence measurements of 200 μL of PBS* or std in 96-well plates on the Cytation 5 Multimode Plate Reader (BioTek). For Si-rhodamine containing ligands, 2–20 μL of […]
trifluoroacetic acid was added to each well of the 96-well plate prior to the fluorescence measurements. Reported values are averages of at least two measurements. The logD7.4 was obtained as described previously using equation 2: logD = log *’(" × r − 1. +)*+∗ / (2) […]
where Cstd is the standard concentration in PBS, CPBS* is the concentration in PBS after partitioning, r is the dilution factor of the standard solution, VPBS* is the volume of PBS used in the partitioning, and Voctanol* is the volume of octanol used in the partitioning.
Plasmid construction for mitochondria imaging and affinity purification. HaloTag, amplified from the pHTC HaloTag CMV-neo Vector (Promega; G7711) and monomeric-superfolder green fluorescent protein (msGFP; lab stock), was fused to the mitochondrial targeting signal from OMP25,8 interspacing flexible GS(GSS)4 linkers between each domain by PCR Splicing by Overlap Extension (SOE). This construct was subcloned into hSynapsin promoter bearing a copy of FUGW.9 FUGW was a gift from David Baltimore (Addgene plasmid # 14883; RRID:
Addgene_14883).10 This construct was designated as pF(UG) hSyn HaloTag-TEV-4×GS-msGFP- […]
HEK293T cell culture. HEK293T cells (ATCC) were passaged before 80% confluency by trypsinization (Corning; 25-053-CI) and trituration. The cell suspension was then plated on glass coverslips (Warner instruments; 64-0734, CS-18R17) coated with poly-D-lysine (Thermofisher; […]

Data set [2] in a line: Spectroscopy of HaloTag ligands and HaloTag conjugates. Type of data set: physicochemical. The settings on record: 10 mM HEPES, pH 7.3. On the procedure: as §1
HaloTag protein purification. The bacterial expression vector pRSET-A (Invitrogen) was used to recombinantly express HaloTag (HT7; Promega).1 The soluble 6×His-Tagged HaloTag protein was affinity purified by immobilized metal affinity chromatography (IMAC) on a 5 -mL Fast Flow HiTrap Sepharose 6 column (Cytiva) with a 0–200 mM imidazole elution gradient using an Avant Protein Purification System (ÄKTA). A280 peak fractions were pooled, concentrated by a spin concentrator, and dialyzed 3× into tris-buffered saline (TBS). The amino acid sequence of HaloTag (HT7) expressed from pRSET-A is noted below; the annotated DNA and amino acid sequences […]
Spectroscopy of HaloTag ligands and HaloTag conjugates. Compounds 13HTL–16HTL, 18HTL, and 19HTL were prepared as stock solutions in DMSO and diluted such that the final DMSO […]
All measurements were taken at ambient temperature (22
± 2 °C). Absorption spectra were recorded on a Cary Model 100 spectrometer (Agilent) using 1-cm path length 1.0-mL quartz microcuvettes from Starna Cells. Fluorescence spectra were recorded on a Cary Eclipse fluorometer (Varian) using 1-cm path length 3.5-mL quartz cuvettes (Starna Cells). As before,2-4 HaloTag protein was used as a 100 μM solution in 1× TBS. HaloTag ligands 13HTL–16HTL, 18HTL, and 19HTL (5 μM) were dissolved in 10 mM HEPES, pH 7.3, containing 0.1 mg/mL CHAPS. An aliquot of HaloTag protein (1.5 equiv) was added, and the resulting mixture was incubated until a consistent absorbance signal was observed (60–120 min).
To measure the fold-increase of absorbance upon HaloTag binding, a “no HaloTag” control experiment was performed where an equivalent volume of TBS blank was added in place of the protein. Reported values for extinction coefficient (ε) are averages of at least two measurements. […]
Quantum yield determination. All reported absolute fluorescence quantum yield values (Φf) were measured in our laboratory under identical conditions using a Quantaurus-QY spectrometer (model C11374, Hamamatsu). This instrument uses an integrating sphere to determine photons absorbed and emitted by a sample. Measurements were performed using dilute samples (absorbance < 0.1), and self-absorption corrections were performed using the instrument software.5 Reported values are averages of at least two measurements.
Determination of logD7.4. The log of distribution coefficients at pH 7.4 was determined in octanol–phosphate-buffered saline (PBS) using a miniaturized shake flask setup described previously.6, 7 Briefly, 150 mL each of octanol and PBS pH 7.4 were stirred vigorously for 12–16 h. The layers were allowed to stand for at least 24 h for phase separation. The separated layers were collected and served as PBS saturated with octanol (PBS*) and octanol saturated with PBS […]

Where [3] appears, read: 1-octanol/PBS, octanol–PBS pH 7.4, miniaturized shake flask, read-out: logD7.4.

SMILES strings stand for the structures. Where two headings read alike, the source gives them in different places.

`C[Si]1(C)c2cc(N3CC(F)C3)ccc2C2(OC(=O)c3ccc(C(=O)NCCOCCOCCCCCCCl)cc32)c2ccc(N3CC(F)C3)cc21` [6HTL, JF635–HaloTag ligand, reference compound] gave a logD in data set [1] (pH 7.4) of 3.82. Also, in data set [2], the Φf came to 0.60, the ε is ~ 400 M^−1cm^−1, the λabs stood at 640 nm and the λem is recorded as 658 nm.
Regarding `O=C(CCCCC1SCC2NC(=O)NC21)NCCOCCOCCNC(=O)C1C[N+](=c2ccc3c(-c4cc(C(=O)NCCOCCOCCCCCCCl)ccc4C(=O)[O-])c4ccc(N5CCC5)cc4oc-3c2)C1` (stereo not shown) [13HTL, biotin–JF549–HaloTag ligand], in data set [1] (setting [3]), the logD was found to be 0.07. For the same molecule, in data set [2], the Φf was 0.90, the ε was 92,000 M^−1cm^−1, the λabs was found to be 552 nm and the λem is 575 nm.
Taken in the same sequence, the figures for `CC1(C)C2=CC(=[N+]3CC(C(=O)NCCOCCOCCNC(=O)CCCC[C@@H]4SC[C@@H]5NC(=O)N[C@@H]54)C3)C=CC2=C(c2cc(C(=O)NCCOCCOCCCCCCCl)ccc2C(=O)[O-])c2ccc(N3CCC3)cc21` (stereo partly shown) [14HTL, biotin–JF608–HaloTag ligand] were 2.63, 0.65, 92,300 M^−1cm^−1, 610 nm and 634 nm.
With `C[Si]1(C)C2=CC(=[N+]3CC(C(=O)NCCOCCOCCNC(=O)CCCC[C@@H]4SC[C@@H]5NC(=O)N[C@@H]54)C3)C=CC2=C(c2cc(C(=O)NCCOCCOCCCCCCCl)ccc2C(=O)[O-])c2ccc(N3CCC3)cc21` (stereo partly shown) [15HTL, biotin–JF646–HaloTag ligand], in data set [1] (pH 7.4), the logD is 3.06. For the same molecule, in data set [2], the Φf amounted to 0.56, the ε was 34,000 M^−1cm^−1, the λabs is 647 nm and the λem worked out at 666 nm.
In data set [1] (pH 7.4), `C[Si]1(C)C2=CC(=[N+]3CC(F)(C(=O)NCCOCCOCCNC(=O)CCCC[C@@H]4SC[C@@H]5NC(=O)N[C@@H]54)C3)C=CC2=C(c2cc(C(=O)NCCOCCOCCCCCCCl)ccc2C(=O)[O-])c2ccc(N3CC(F)C3)cc21` (stereo partly shown) [16HTL, biotin–JF635–HaloTag ligand] came in with a logD of 3.6. In data set [2], the Φf is on record as 0.60, the ε is recorded as 2,900 M^−1cm^−1, the λabs was 636 nm and the λem is listed as 655 nm.
